Results as given in patent US7098195B2, “Fluorinated glucosamine analogs useful for modulating post-translational glycosylations on cells” (Health Research, Inc., priority 2001, dated 2006).
Where two headings read alike, the source gives them in different places.

Legend:
[1] = test system: P-selectin ligand activity of CLA+ T-lymphocytes; test: Parallel-plate flow chamber, CLA+ T-cell tethering and rolling on P-selectin chimera; type: cell-based, human
Description: (§1) To analyze the affects of 4-F-GlcNAc on the function of CLA on human T-cells, we examined the ability of 4-F-GlcNAc-treated (0.05, 0.1, 0.5 mM for 30 hrs) CLA-+ T-cells cultures to engage with immobilized E- and P-selectin chimera in the parallel-plate flow chamber. As described for flow cytometric analyses (Example 13), cells were first pretreated with neuraminidase to remove terminal sialic acid residues required for HECA-452 reactivity and for E- and P-selectin ligand activity of CLA. This approach allowed for the assessment on de novo synthesized CLA molecules.
(§2) Tethering and rolling of human T-cells on recombinant human E- and P-selectin-Ig chimera (provided by Dr. Robert Fuhlbrigge, Harvard Medical School) and human L-selectin-Ig (gift from Dr. Ray Camphausen, Wyeth/Genetics Institute, Inc., Cambridge, Mass.) were analyzed in the parallel-plate flow chamber under physiologic shear stress conditions (3). To prepare E- and P-selectin-Ig chimera spots, protein A (300 μg/15 μl 0.1M NaHCO3) was adsorbed to Ten-twenty-nine™ Petri dishes for 2 h at 37° C. Human serum albumin ([…] PBS) then added and incubated for 2 h at 37° C. to block non-specific binding sites. E-selectin-Ig (50 ng/50 μl PBS) or P-selectin-Ig (50 ng/50 μl PBS) solutions was pipetted directly over the pre-existing protein A spots for 18 h at 4° C. To prepare L-selectin-Ig spots, L-selectin-Ig (300 ng/15 μl PBS) or isotype control human IgG (300 ng/15 μl) were adsorbed directly to plastic (non-protein A-coated) for 18 h at 4° C. and blocked in 100% FBS for 2 h at 4° C.
(§3) CLA^+ T-cells or freshly isolated PBL were treated with neuraminidase and metabolic glycosylation inhibitors or with protease (bromelain) as described above, washed twice in HBSS, suspended at 2×10^6/ml in HBSS/10 mM HEPES/2 mM CaCl2 (H/H/Ca^++) and infused into the chamber over selectin chimeras. Protease treatment was performed to control for residual E-selectin activity not attributable to the expression of CLA on a protein scaffold. Cell tethering was permitted at 0.6 dynes/cm^2 for 1 min, then stepwise increments in shear stress every 15 sec were employed to a final shear stress level of 60 dynes/cm^2. The number of cells rolling/viewing field (at 100× magnification) was quantified at each level of shear stress in triplicates for a minimum of three experiments. […] Negative control experiments were performed in parallel, wherein cell binding was examined in H/H adhesion assay medium containing 5 mM EDTA as well as assaying cell binding to human IgG isotype control.
(§4) Utilizing the parallel-plate flow chamber under physiologic shear stress conditions, E-, P- and L-selectin ligand activities of human CLA^+ T-cells treated were analyzed in an identical manner as cells prepared for Western blotting and autoradiography studies.

[2] = test system: E-selectin ligand activity of CLA+ T-lymphocytes; test: Parallel-plate flow chamber, CLA+ T-cell tethering and rolling on E-selectin chimera; type: cell-based, human
Description: as §1, §2, §3, §4

[3] = test system: L-selectin ligand activity of human CLA+ T-cells; test: Parallel-plate flow chamber, CLA+ T-cell rolling on L-selectin chimera; type: cell-based
Description: as §2, §3, §4

[4] = test system: HCELL/CD44 activity on human hematopoietic KG1a cells; test: Stamper-Woodruff adhesion assay, L-selectin-dependent lymphocyte adherence to KG1a cells; type: cell-based; details: for relative potency as inhibitor of HCELL activity: 4-F-GlcNAc vs swainsonine, tunicamycin vs both
Excerpt: To study the effects of 4-F-GlcNAc on the function of the L-selectin binding activity of CD44 (HCELL), we employed the shear-based, Stamper-Woodruff adhesion assay to examine the ability of 4-F-GlcNAc-treated KG1a cells to support L-selectin-dependent lymphocyte adherence. This assay is utilized to specifically assess the shear-dependent binding interactions between L-selectin naturally expressed on lymphocytes and HCELL expressed on KG1a cells (Dimitroff, C. J. et al. (2000) Proc. Nat. Acad. Sci., 97(25):13841–46; Sackstein, R. and Dimitroff, C. J. (2000) Blood, 96: 2765–74.). Before treating KG1a cells with 0.05, 0.1 or 0.5 mM 4-F-GlcNAc, we first pretreated KG1a cells with Vibrio cholerae neuraminidase (0.1 U/ml for 1 hr at 37° C.) to cleave all terminal α2,3 sialic acid-bearing residues and eliminate all HCELL activity. Glutaraldehyde-fixed monolayers of KG1a cells that were first treated with Vibrio cholerae neuraminidase (0.1 U/ml for 1 hr at 37° C.) then re-cultured in the presence of 4-F-GlcNAc (0.05–0.5 mM) for 30 hr at 37° C. Metabolic inhibitors swainsonine, an inhibitor of α-mannosidase II, tunicamycin, an inhibitor of N-acetylglucosamine phosphototransferase, were also utilized to compare the relative potencies of known glycosylation inhibitors. Human peripheral blood lymphocytes (5×10^6cells/ml RPMI1640 w/o NaBicarbonate/5%FBS) were overlayed onto KG1a monolayers at 80 rpm for 30 min. at 4° C., and after gently washing in PBS, lymphocytes bound to cell monolayers were fixed in 3% glutaraldehyde. Re-expression of HCELL activity or HECA-452-reactive CD44 on KG1a cells was determined after […] of 4-F-GlcNAc treatment. Bound lymphocytes were quantified at 100× magnification from a minimum of 5 fields from 2 slides, and the mean number of lymphocytes (standard error of the mean) was calculated.

[5] = test system: α-mannose (ConA staining); type: cell-based, human; details: compared with PBS or GlcNAc treatments
Description: (§5) For lectin blotting, cell lysates (25 μg/spot) were spotted onto methanol-permeabilized PVDF membrane and blocked in FBS for 1 h at RT. Blots were then probed with AP-Canavalia ensiformis agglutinin (ConA) (2.0 μg/ml PBS; specificity: α-mannose), AP-Triticum vulgaris (Wheat germ) agglutinin (WGA) (0.5 μg/ml PBS; specificity: terminal GlcNAc or GlcNAcβ1,4GlcNAc) or AP-Lycopersicon esculentum (tomato lectin) agglutinin (LEA) (1.0 μg/ml PBS; specificity: (Galβ1,4GlcNAc)n) for 1 h at RT (All lectins from EY Labs., Inc., San Mateo, Calif.). After washing 3× in PBS/0.1% Tween-20 and 1× in PBS (10 min each), blots were developed with Western Blue®.
(§6) To analyze and identify the glycan modifications on CLA^+ T-cells treated with 4-F-GlcNAc, lectin blotting experiments were performed with ConA (Specificity: α-mannose), WGA (Specificity: terminal GlcNAc or GlcNAcβ1,4GlcNAc) and LEA (Specificity: {Galβ1,4GlcNAc}n).

[6] = test system: terminal GlcNAc or GlcNAcβ1,4GlcNAc (WGA staining); test: Lectin blot with WGA of CLA+ T-cell lysates; type: cell-based, human; details: compared with PBS or GlcNAc treatments
Description: as §5, §6

[7] = test system: (Galβ1,4GlcNAc)n (LEA staining); test: Lectin blot with LEA of CLA+ T-cell lysates; type: cell-based, human; details: compared with PBS or GlcNAc treatments
Description: as §5, §6

[8] = at 2.0 dynes/cm^2, tunicamycin 0.02 mM, swainsonine 0.23 mM, 4-F-GlcNAc 0.05 mM, BAG 2.0 mM, p<0.01
[9] = neuraminidase then 0.1 and 0.5 mM for 30 hrs
[10] = 30 h following neuraminidase digestion, drug control

CC(=O)N[C@H]1C(OC(C)=O)O[C@H](COC(C)=O)[C@@H](F)[C@@H]1OC(C)=O (stereo partly drawn) [4-F-GlcNAc, 2-acetamido-2-deoxy-1,3,6-tri-O-acetyl-4-deoxy-4-fluoro-D-glucopyranose]
difference in cell rolling frequency on P-selectin chimera vs PBS recovery ([1]; 0.05 mM, p<0.001): statistically significant
rolling adhesions on P-selectin chimera [1, 8]: significant reductions
CLA+ T-cell tethering and rolling mediated by P-selectin [1, 9]: completely abolished
E-selectin ligand activity compared with protease treatment [2]: did not reduce E-selectin ligand activity below that of protease-treatment
difference in cell rolling frequency on E-selectin chimera vs PBS recovery ([2]; 0.05 mM, p<0.001): statistically significant
rolling adhesions on E-selectin chimera [2, 8]: significant reductions
CLA+ T-cell tethering and rolling mediated by E-selectin [2, 9]: completely abolished
rolling adhesions on L-selectin chimera [3, 8]: significant reductions
relative potency as inhibitor of HCELL activity [4]: more potent inhibitor of HCELL activity
inhibition at 50 µM ([4]; Homo sapiens, KG-1a, KG1a neuraminidase then recovery in 0.05 mM, read-out: % Inhibition (lymphocyte binding)): 60%
inhibition at 100 µM ([4]; Homo sapiens, KG-1a, KG1a neuraminidase then recovery in 0.1 mM, read-out: % Inhibition (lymphocyte binding)): 78%
inhibition at 500 µM ([4]; Homo sapiens, KG-1a, KG1a neuraminidase then recovery in 0.5 mM, read-out: % Inhibition (lymphocyte binding)): 94%
Mean Lymphocyte Binding ([4]; KG1a neuraminidase then recovery in 0.05 mM): 93.6
Mean Lymphocyte Binding ([4]; KG1a neuraminidase then recovery in 0.1 mM): 50.6
Mean Lymphocyte Binding ([4]; KG1a neuraminidase then recovery in 0.5 mM): 15.4
ConA staining of lysates [5]: no effect
WGA staining of lysates [6]: elevated
LEA staining of lysates [7]: notably diminished

CC(=O)N[C@H]1C(O)O[C@H](CO)[C@@H](O)[C@@H]1O (stereo partly shown) [GlcNAc, N-acetylglucosamine]
recovery of P-selectin ligand activity [1, 10]: > 80 % recovery
recovery of E-selectin ligand activity [2, 10]: > 80 % recovery
recovery of L-selectin ligand activity [3, 10]: > 80 % recovery

O[C@H]1[C@H]2[C@H](O)CCCN2C[C@H]1O [swainsonine]
rolling adhesions on P-selectin chimera [1]: no effect
rolling adhesions on E-selectin chimera [2]: no effect
rolling adhesions on L-selectin chimera [3]: no effect
inhibition at 230 µM ([4]; Homo sapiens, KG-1a, KG1a neuraminidase then recovery in 0.23 mM, read-out: % Inhibition (lymphocyte binding)): 74%
Mean Lymphocyte Binding ([4]; KG1a neuraminidase then recovery in 0.23 mM): 60.7
ConA staining of lysates [5]: enhanced

tunicamycin
rolling adhesions on P-selectin chimera [1]: significant reductions
rolling adhesions on E-selectin chimera [2]: significant reductions
rolling adhesions on L-selectin chimera [3]: significant reductions
relative potency as inhibitor of HCELL activity [4]: more potent inhibitor of HCELL activity than both swainsonine and 4-F-GlcNAc
ConA staining of lysates [5]: eliminated
WGA staining of lysates [6]: eliminated
LEA staining of lysates [7]: eliminated
